Data reported in ChEMBL document CHEMBL1201862, “PubChem BioAssay data set” (2004).
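1) Cells in 96-well plates. 2) Compound, 48 h, 5 concentrations. 3) Linear interpolation between surrounding doses. 4) Unreached endpoint = highest concentration. Here, GI50 denotes the concentration required for 50% inhibition of growth.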 Active and inactive are the calls of the source. Cut-off read from the data, not from the text of the source: active = GI50 up to about 1.1 µM and inactive = higher.

Legend:
Test in all cases: inhibition of tumour cell growth, NCI panel, 48 h
K562 = test system: K562
SNB-75 = test system: SNB-75
UACC-257 = test system: UACC-257
CCRF-CEM = test system: CCRF-CEM
SN12C = test system: SN12C
NCI-H522 = test system: NCI-H522
HCC 2998 = test system: HCC 2998
Malme-3M = test system: Malme-3M
MDA-MB-231 = test system: MDA-MB-231
MDA-MB-435 = test system: MDA-MB-435
HCT-116 = test system: HCT-116
UACC-62 = test system: UACC-62
KM12 = test system: KM12
MDA-N = test system: MDA-N
NCI-H23 = test system: NCI-H23
SF-539 = test system: SF-539
Hs-578T = test system: Hs-578T
CAKI-1 = test system: CAKI-1
SK-OV-3 = test system: SK-OV-3
T47D = test system: T47D

SMILES | GI50 (K562) | GI50 (SNB-75) | GI50 (UACC-257) | GI50 (CCRF-CEM) | GI50 (SN12C) | GI50 (NCI-H522) | GI50 (HCC 2998) | GI50 (Malme-3M) | GI50 (MDA-MB-231) | GI50 (MDA-MB-435) | GI50 (HCT-116) | GI50 (UACC-62) | GI50 (KM12) | GI50 (MDA-N) | GI50 (NCI-H23) | GI50 (SF-539) | GI50 (Hs-578T) | GI50 (CAKI-1) | GI50 (SK-OV-3) | GI50 (T47D)
O=C1C=C(NCC(c2ccccc2)c2ccccc2)C(=O)c2ncccc21 | 1.38 µM (inactive) | 0.507 µM (active) | 0.877 µM (active) | 2.64 µM (inactive) | 2.1 µM (inactive) | 1.34 µM (inactive) | 0.785 µM (active) | 1.36 µM (inactive) | 2.67 µM (inactive) | 1.35 µM (inactive) | 8.53 µM (inactive) | 1.39 µM (inactive) | 2.19 µM (inactive) | 1.6 µM (inactive) | 1.54 µM (inactive) | 3.09 µM (inactive) | 2.63 µM (inactive) | 2.4 µM (inactive) | 7.33 µM (inactive) | 3.08 µM (inactive)
CCc1ccc(CCC(=O)O)nc1 | > 100 µM (inactive) | > 100 µM (inactive) | > 100 µM (inactive) | > 100 µM (inactive) | > 100 µM (inactive) | > 100 µM (inactive) | > 100 µM (inactive) | > 100 µM (inactive) | > 100 µM (inactive) | > 100 µM (inactive) | > 100 µM (inactive) | > 100 µM (inactive) | > 100 µM (inactive) | > 100 µM (inactive) | > 100 µM (inactive) | > 100 µM (inactive) | > 100 µM (inactive) | > 100 µM (inactive) | > 100 µM (inactive) | > 100 µM (inactive)
C=C1CC23CCC4C(C)(C(=O)O)CCCC4(C)C2CCC1C3 (stereo not given) | 46.3 µM (inactive) | 47.8 µM (inactive) | 36.8 µM (inactive) | 25.1 µM (inactive) | 38 µM (inactive) | 23.8 µM (inactive) | 17.1 µM (inactive) | 94 µM (inactive) | 25.9 µM (inactive) | 62.1 µM (inactive) | 32.7 µM (inactive) | 52.4 µM (inactive) | 41.6 µM (inactive) | 64 µM (inactive) | 41.9 µM (inactive) | 74 µM (inactive) | 44.3 µM (inactive) | 22.3 µM (inactive) | 44.5 µM (inactive) | 38 µM (inactive)
CC(=O)OCc1cncn1S(=O)(=O)c1ccc(C)cc1 | 5.37 µM (inactive) | > 100 µM (inactive) | > 100 µM (inactive) | 30.4 µM (inactive) | > 91.2 µM (inactive) | 71.9 µM (inactive) | > 62.4 µM (inactive) | > 100 µM (inactive) | > 100 µM (inactive) | 10.4 µM (inactive) | 25.6 µM (inactive) | > 91 µM (inactive) | 31.7 µM (inactive) | 9.46 µM (inactive) | > 100 µM (inactive) | 86.9 µM (inactive) | > 78.5 µM (inactive) | > 100 µM (inactive) | > 100 µM (inactive) | 79.4 µM (inactive)
O=P1(Oc2ccccc2)N(CCCl)CCN1c1ccccc1 (stereo not given) | > 100 µM (inactive) | 34.8 µM (inactive) | 79.6 µM (inactive) | > 100 µM (inactive) | > 100 µM (inactive) | > 100 µM (inactive) | > 100 µM (inactive) | > 100 µM (inactive) | 95.7 µM (inactive) | > 100 µM (inactive) | 75.3 µM (inactive) | > 100 µM (inactive) | > 100 µM (inactive) | > 100 µM (inactive) | > 100 µM (inactive) | > 100 µM (inactive) | > 100 µM (inactive) | > 100 µM (inactive) | > 100 µM (inactive) | > 100 µM (inactive)
Cc1cc(NS(=O)(=O)c2ccc(NC(=O)c3cccc4c(NNc5ccc(S(=O)(=O)N=C(N)N)cc5)c5ccccc5nc34)cc2)no1 | 36.8 µM (inactive) | 28.2 µM (inactive) | > 100 µM (inactive) | 29 µM (inactive) | 70.3 µM (inactive) | 29 µM (inactive) | 30.5 µM (inactive) | 94.4 µM (inactive) | 44.2 µM (inactive) | 92.9 µM (inactive) | 40.2 µM (inactive) | 42.9 µM (inactive) | 36 µM (inactive) | 68.5 µM (inactive) | 74.5 µM (inactive) | 40.1 µM (inactive) | 27.4 µM (inactive) | > 100 µM (inactive) | 54.2 µM (inactive) | 34.6 µM (inactive)
[O-][n+]1onc(-c2ccccc2)c1CN1CCOCC1 | 51.2 µM (inactive) | > 100 µM (inactive) | > 100 µM (inactive) | 22.8 µM (inactive) | > 100 µM (inactive) | 26.4 µM (inactive) | > 100 µM (inactive) | > 100 µM (inactive) | > 100 µM (inactive) | > 100 µM (inactive) | > 100 µM (inactive) | 68.1 µM (inactive) | > 100 µM (inactive) | > 100 µM (inactive) | > 100 µM (inactive) | > 100 µM (inactive) | 68.1 µM (inactive) | > 100 µM (inactive) | > 100 µM (inactive) | 71.6 µM (inactive)
COc1ccccc1/C=C1\CCC(Cc2ccccc2)(CN(C)C)C1=O (stereo not given) | 0.0851 µM (active) | 3.32 µM (inactive) | 12.3 µM (inactive) | 0.528 µM (active) | 3.75 µM (inactive) | 0.597 µM (active) | 3.13 µM (inactive) | 14.1 µM (inactive) | 4.59 µM (inactive) | 1.07 µM (active) | 0.406 µM (active) | 1.28 µM (inactive) | 0.319 µM (active) | 0.685 µM (active) | 6.43 µM (inactive) | 1.52 µM (inactive) | 0.834 µM (active) | 2.38 µM (inactive) | 8.36 µM (inactive) | 22.2 µM (inactive)
COC(=O)[C@]1(c2cc3ccccc3[nH]2)CC2CN(C(=O)OCc3ccccc3)C1CC2=O (stereo not given in full) | 18.7 µM (inactive) | 16.5 µM (inactive) | 36.3 µM (inactive) | 28.2 µM (inactive) | 17.4 µM (inactive) | 20.6 µM (inactive) | 35 µM (inactive) | 20.7 µM (inactive) | 12.8 µM (inactive) | 30.1 µM (inactive) | 22.8 µM (inactive) | 17.1 µM (inactive) | 26.9 µM (inactive) | 24.8 µM (inactive) | 29.7 µM (inactive) | 28.3 µM (inactive) | 19.4 µM (inactive) | 38.5 µM (inactive) | 33.4 µM (inactive) | 22.5 µM (inactive)
Cc1occc1C(=S)Nc1ccc(Cl)c(/C=N/OC(C)(C)C)c1 | 31.6 µM (inactive) | 21.8 µM (inactive) | 16.7 µM (inactive) | 17.8 µM (inactive) | 15.1 µM (inactive) | 11.7 µM (inactive) | 16.6 µM (inactive) | 21.8 µM (inactive) | 19.7 µM (inactive) | 16.6 µM (inactive) | 13.5 µM (inactive) | 14.3 µM (inactive) | 15.3 µM (inactive) | 18.9 µM (inactive) | 15.3 µM (inactive) | 31.2 µM (inactive) | 19.8 µM (inactive) | 17.2 µM (inactive) | 23 µM (inactive) | 16.5 µM (inactive)
